# In article PMC7481357, “N-terminal Myristoylation Enhanced the Antimicrobial Activity of Antimicrobial Peptide PMAP-36PW” (Frontiers in Cellular and Infection Microbiology, 2020):
# “Also recorded” adds a separate entry of the source.
# Columns and labels:
# P. aeruginosa GIM 1.551 [1] = assay: Pneumonia (lung infection) model; type: in vivo, BALB/c mice; details: intranasal 40 μL, 1 μg/μL, once a day for 3 days
# Experimental: A pneumonia model in vivo was established as previously reported, with minor modification (Cortés et al., [2002]; Aoki et al., [2009]; Shi et al., [2018]). A total of 120 mice were randomly divided into two experimental models, one was intranasal inoculation of S. aureus ATCC 25923 (8.3 × 10^9 CFU/mL, 50 μL), and the other was intranasal inoculation of P. aeruginosa GIM 1.551 (4.5 × 10^10 CFU/mL, 50 μL). In the S. aureus ATCC 25923 model, 60 mice were divided into the following six groups of 10 mice each: no infection and treatment was used as a blank control, those with intranasal administration of PBS (40 μL) as the negative control group, those administered with benzylpenicillin potassium (40 μL, 1 μg/μL) as the positive control group, and the remaining three corresponded to Myr-36PW (40 μL, 1 μg/μL), PMAP-36PW (40 μL, 1 μg/μL), and PMAP-36 groups (40 μL, 1 μg/μL). The procedure for P. aeruginosa GIM 1.551 model is the same as for S. aureus ATCC 25923 model, except for the use of ampicillin sodium as the positive control. After 4 h post-inoculation, treatment was initiated, once a day for 3 days. The mice were sacrificed 24 h after the treatment. Changes in the appearance of lung tissues were observed, and lung tissues were removed aseptically from the mice. Half of the removed lung tissues were gently fixed in buffered formaldehyde solution for histopathological assessment by hematoxylin and eosin (H&E) staining. Pathological changes were scored to provide individual therapeutic status as described previously (Lei et al., [2018]). The remaining lung tissues were added with 1 mL of PBS, homogenized, and serially diluted. Bacterial CFU counts were determined.
# Figure 8 Therapeutic effect for pneumonia by Myr-36PW in vivo. Mice were injected with S. aureus ATCC 25923 or P. aeruginosa GIM 1.551 to form pneumonia, and lungs (n = 5) in each group were collected on day 4 after intranasal bacterial inoculation. (A) Morphological changes of lung tissues. (B) Representative histopathological images of processed lung section with hematoxylin and eosin (H&E) staining. Images are presented at a magnification of 20×. a: inflammatory cell infiltration. b: the alveolar wall is thickened. c: alveolar wall congestion or alveolar hemorrhage. (C,D) Pathological scores of the lung sections. Scoring standard: 1 indicated no pathology, 2 indicated local pulmonary congestion and inflammatory cell infiltration, 3 indicated pulmonary congestion and a large number of inflammatory cell infiltration, affecting <20% of the section, 4 indicated pulmonary congestion and a large number of inflammatory cell infiltration, affecting 20–50% of the section, and 5 indicated pulmonary congestion and a large number of inflammatory cell infiltration, affecting >50% of the section. (E,F) Bacterial CFU in lung homogenate. BP is benzylpenicillin potassium, AS is ampicillin sodium. Data represent the mean ± SD of five individual experiments.
# S. aureus ATCC 25923 [2] = type: cell-based, Staphylococcus aureus; details: S. aureus ATCC 25923; * indicates resistant (CLSI, 2020)
# Experimental: (§1) The MICs of Myr-36PW in vitro were measured through microdilution in accordance with the Clinical and Laboratory Standards Institute (CLSI, [2020]). The bacterial cells were cultured for 12 h at 37°C in the appropriate medium and then diluted to 1 × 10^6 CFU/mL. Equal volumes (100 μL) of bacterial cell suspension and two-fold serially diluted different concentrations peptides (0.0039–256 μg/mL) were added to each well of the sterile 96-well plate. The samples were incubated for 18 h at 37°C. After incubation, the MICs of the peptides were determined by evaluating the growth based on the OD600 of the cultures.
# P. aeruginosa GIM 1.551 [3] = type: cell-based, Pseudomonas aeruginosa; details: P. aeruginosa GIM 1.551; * indicates resistant (CLSI, 2020)
# Experimental: as §1
# [4] = system: L. monocytogenes CICC 21634; type: cell-based, Listeria monocytogenes; details: L. monocytogenes CICC 21634; * indicates resistant (CLSI, 2020)
# Experimental: as §1
# P. aeruginosa GIM 1.551 [5] = assay: Wound infection model; type: in vivo, BALB/c mice; details: 20 μL, 1 μg/μL, once a day for 7 days
# Experimental: Sixty mice with ten mice in each group were used in the experiment. Infection and treatment were performed as previously described (Hong et al., [2017]). The mouse dorsal region with a diameter of 3.0 cm was treated with hair pusher, and a full-thickness 2.0 cm diameter wound was created by excising the skin and infected by direct seeding with P. aeruginosa GIM 1.551 (1 × 10^8 CFU/mL, 50 μL). The wound was then covered with sterile gauze to prevent cross contamination. Treatment was initiated at 24 h after bacterial inoculation. The mice with no infection and treatment was used as a blank control, those provided with PBS (20 μL) as the negative control group, those administered with ampicillin sodium (20 μL, 1 μg/μL) as the positive control group, and the remaining were those treated with the three peptides (20 μL, 1 μg/μL) once a day for 7 days as the treatment groups. The mice were sacrificed after the 7 day treatment. Changes in the wound were observed, and the infected sections of skin were aseptically contained, homogenized, and serially diluted. Bacterial CFU counts were obtained.
# Figure 11 Treatment value of wound by Myr-36PW in vivo. A 2 cm wound was cut with a knife and directly injected with P. aeruginosa GIM 1.551. (A) Wound changes of mice after 7 days treatment. (B) Bacterial CFU in the wound area treated for 7 days under different experimental conditions. AS is ampicillin sodium. Data represent the mean Log (CFU) ± SD of five individual experiments. *P < 0.05 and **P < 0.01, compared with PBS. ^#P < 0.05, compared with PMAP-36PW.
# P. aeruginosa GIM 1.551 [6] = assay: Subcutaneous abscess model; type: in vivo, BALB/c mice; details: injected 20 μL, 1 μg/μL, once a day for 3 days
# Experimental: A subcutaneous abscess model in vivo was established as previously reported (Zhao et al., [2019]). The mouse dorsal region with 3.0 cm diameter was treated with hair pusher. A total of 120 mice were randomly divided into two experimental models, one was challenged with S. aureus ATCC 25923 (2.5 × 10^8 CFU/mL, 60 μL), and the other was challenged with P. aeruginosa GIM 1.551 (3.0 × 10^8 CFU/mL, 60 μL). In the S. aureus ATCC 25923 model, 60 mice were divided into six groups of 10 members. The mice with no infection and treatment was used as a blank control, those directly injected with PBS (20 μL) as the negative control group, those injected with benzylpenicillin potassium (20 μL, 1 μg/μL) as the positive control group, and the remaining three groups as the treatment groups injected with Myr-36PW (20 μL, 1 μg/μL), PMAP-36PW (20 μL, 1 μg/μL), and PMAP-36 (20 μL, 1 μg/μL). The procedure in P. aeruginosa GIM 1.551 model is the same as that in S. aureus ATCC 25923 model, except for the use of ampicillin sodium as a positive control. Treatment once a day for 3 days was initiated when the mice developed prominent pustules on their backs. A day after the treatment, the size of the abscess was observed, and its tissues were excised, homogenized, and serially diluted. Bacteria CFU counts were calculated.
# Figure 10 Treatment efficacy of subcutaneous abscess by Myr-36PW in vivo. Mice were injected with S. aureus ATCC 25923 or P. aeruginosa GIM 1.551 to develop a subcutaneous abscess before treatment. (A) Changes in the abscess area of mice after 3 days treatment. (B,C) Quantitative analysis of bacterial CFU in abscess area that received 3 days treatment under various experimental conditions. The number of CFU in each treatment group was normalized by using the CFU of the experimental group divided by the CFU of the PBS group (100%). BP is benzylpenicillin potassium, AS is ampicillin sodium. Data represent the mean ± SD of five individual experiments. *P < 0.05 and **P < 0.01, compared with PBS. ^#P < 0.05 and ^##P < 0.01, compared with PMAP-36PW.
# S. typhimurium SL 1344 [7] = type: cell-based, Salmonella typhimurium; details: S. typhimurium SL 1344; * indicates resistant (CLSI, 2020)
# Experimental: as §1
# S. aureus ATCC 25923 [8] = assay: Inhibition zone assay (disk diffusion); type: cell-based, Staphylococcus aureus; design: key: +, means the peptide has antibacterial activity; details: disk 10 μg peptide, 18 h at 37°C, * P < 0.05, ** P < 0.01 vs PMAP-36PW
# Experimental: (§2) The inhibition zone assay was performed through the disk diffusion to evaluate the antimicrobial activity of Myr-36PW in vitro (Dunne et al., [2017]). The four above-mentioned bacterial strains were used as experimental strains, with L. monocytogenes CICC 21634 cultured in BHI medium, and P. aeruginosa GIM 1.551 cultured in TSB medium. The bacterial cells were cultured for 12 h at 37°C in the appropriate medium, and the bacterial cell suspension was spread on LB agar. The disks containing 10 μg of peptides (1 μg/μL) were attached to the solid medium and incubated at 37°C for 18 h. Finally the diameter of the inhibition zone was measured.
# S. typhimurium SL 1344 [9] = assay: Inhibition zone assay (disk diffusion); type: cell-based, Salmonella typhimurium; design: key: +, means the peptide has antibacterial activity; details: disk 10 μg peptide, 18 h at 37°C, * P < 0.05, ** P < 0.01 vs PMAP-36PW
# Experimental: as §2
# P. aeruginosa GIM 1.551 [10] = assay: Inhibition zone assay (disk diffusion); type: cell-based, Pseudomonas aeruginosa; design: key: +, means the peptide has antibacterial activity; details: disk 10 μg peptide, 18 h at 37°C, * P < 0.05, ** P < 0.01 vs PMAP-36PW
# Experimental: as §2
# [11] = system: L. monocytogenes CICC 21634; assay: Inhibition zone assay (disk diffusion); type: cell-based, Listeria monocytogenes; design: key: +, means the peptide has antibacterial activity; details: disk 10 μg peptide, 18 h at 37°C, * P < 0.05, ** P < 0.01 vs PMAP-36PW
# Experimental: as §2
SMILES,Lung histopathology (H&E) (P. aeruginosa GIM 1.551 [1]),Bacterial CFU in lung homogenate (P. aeruginosa GIM 1.551 [1]; n = 5),Pathological scores of the lung sections (P. aeruginosa GIM 1.551 [1]; n = 5),MICs of different classes of antibiotics (S. aureus ATCC 25923 [2]),MICs of different classes of antibiotics (P. aeruginosa GIM 1.551 [3]),MICs of different classes of antibiotics [4],Wound size (P. aeruginosa GIM 1.551 [5]),"Bacterial CFU in the wound area (P. aeruginosa GIM 1.551 [5]; vs PBS group: PMAP-36PW P < 0.05, Myr-36PW and ampicillin sodium P < 0.01, n = 5)",Abscess area (P. aeruginosa GIM 1.551 [6]),"Bacterial CFU in abscess area (P. aeruginosa GIM 1.551 [6]; vs PMAP-36PW: Myr-36PW P < 0.05, ampicillin sodium P < 0.01, n = 5)",MICs of different classes of antibiotics (S. typhimurium SL 1344 [7]),In vitro antibacterial activity (disk diffusion) (S. aureus ATCC 25923 [8]),In vitro antibacterial activity (disk diffusion) (S. typhimurium SL 1344 [9]),In vitro antibacterial activity (disk diffusion) (P. aeruginosa GIM 1.551 [10]),In vitro antibacterial activity (disk diffusion) [11]
CC1(C)S[C@@H]2[C@H](NC(=O)[C@H](N)c3ccccc3)C(=O)N2[C@H]1C(=O)O [Ampicillin sodium],"a complete alveolar structure, reduced blood stasis, and large reduction in inflammatory cells",decreased the P. aeruginosa GIM 1.551 CFU level compared with the PMAP-36PW group (P < 0.05),lower scores than PMAP-36PW group (P < 0.05),0.5 µg/mL,32 µg/mL,64 µg/mL,significantly reduced,significantly reduced,significantly reduced the abscess area and effectively suppressed its growth,significant difference compared with that of PBS group (P < 0.01); also recorded: lower than that of PMAP-36PW group,16 µg/mL,,,,
"CO/N=C(\C(=O)N[C@@H]1C(=O)N2C(C(=O)[O-])=C(CSC(=O)c3ccco3)CS[C@H]12)c1csc(N)n1.[Na+] [Ceftiofur Sodium, Ceftiofur sodium]",,,,<0.25 µg/mL,64* μg/mL,32* μg/mL,,,,,4 µg/mL,+,+,+,+
